Results reported in patent US6288059A, “Acylated hetero-alicyclic derivatives” (Sankyo Company, Limited, priority 1997, dated 2001).

What was measured:
NK2 receptors = details: relative to SR48968; Tachykinin in Health and Disease abstract, 1997; cited from earlier work
NK2 receptor = target: T1, NK2 receptor (Cavia porcellus, UniProt Q64077); assay: NK2 Receptor Binding Test ([3H]-SR-48968, crude ileum membrane fraction); parameters: species or system guinea pig (male Hartley); details: [3H]-SR-48968 1 nM; guinea pig ileum membrane; room temperature, 30 minutes; read-out: IC50 (50% binding drug concentration) (converted)
T1 construct: A crude membrane fraction was prepared from the ileum of male Hartley guinea pigs; from tissue; host or cells: ileum of male Hartley guinea pigs, crude membrane fraction
T1 sequence (Q64077 1-402): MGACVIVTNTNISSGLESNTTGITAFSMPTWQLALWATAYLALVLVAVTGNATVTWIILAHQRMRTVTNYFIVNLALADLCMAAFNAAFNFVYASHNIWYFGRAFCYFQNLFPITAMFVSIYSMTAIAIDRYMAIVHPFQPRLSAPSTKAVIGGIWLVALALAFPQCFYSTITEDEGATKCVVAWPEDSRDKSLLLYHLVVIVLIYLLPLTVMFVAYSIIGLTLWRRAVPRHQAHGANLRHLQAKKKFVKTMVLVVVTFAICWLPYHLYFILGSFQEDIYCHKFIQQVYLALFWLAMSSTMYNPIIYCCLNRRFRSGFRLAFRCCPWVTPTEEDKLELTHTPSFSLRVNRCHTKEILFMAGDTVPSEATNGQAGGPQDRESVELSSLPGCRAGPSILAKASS
Protocol: Test Example 2 NK2 Receptor Binding Test
(a) Preparation of crude ileum membrane fraction
A crude membrane fraction was prepared from the ileum of male Hartley guinea pigs. Namely, the guinea pigs were bled from the cava abdominalis under chloroform anaesthesia and the ileum was extracted immediately.
After the contents secreta and epithelium of the ilium had been scraped off using a glass slide, the extracted ileum was thinly cut in a buffer (1) (50 mM Tris-HCl, pH 7.4) and then homogenized in a buffer (2) [buffer (1) containing 120 mM sodium chloride and 5 mM potassium chloride] using a Polytron homogenizer.
The tissue mass was removed from the homogenate by filtration with a nylon mesh (50 μm) and the supernatant was centrifuged (30,000×g, 30 minutes, 4° C.).
The resultant pellet was resuspended in an ice-cooled buffer (3) [buffer (1) containing 10 mM EDTA and 300 mM potassium chloride], allowed to stand at 4° C. for 60 minutes and then washed centrifugally twice (30,000×g, 15 minutes, 4° C.).
The crude membrane fraction was preserved at -80° C. before use.
(b) Receptor Binding Test
To a mixed solution (250 μl) of the test compound and [^3 H]-SR.-48968 (Amasham Co., final concentration: 1 nM) (50 mM Tris-HCl, pH 7.4; 6 mM manganese chloride, 800 μg/ml BSA, 8 μg/ml chymostatin, 8 μg/ml leupeptin, 80 μg/ml bacitracin, 20 μg/ml phosphoramidon) was added the crude ileum membrane fraction solution (250 μl), followed by incubation at room temperature for 30 minutes.
After the reaction, a membrane ingredient was recovered on a GF/B glass fiber filter (Whatman Co.) using an automatic filtering device (Brandel Co.).
The glass filter was used after pretreatment with a 10% of polyethyleneimine solution for about 4 hours so as to inhibit non-specificbinding as much as possible.
The membrane ingredient-recovered filter was transferred to a mini-plastic vial containing a pico flow (4 ml) and the radioactivity was measured using a liquid scintillation counter (Beckman Co., LSC3500) to determine the 50% binding drug concentration (IC50).

**Q.** Which “NK2 receptor-selective antagonistic activity compared with SR.48968” value (NK2 receptors) does the source give for `CN(C)C(=O)NC1(c2ccccc2)CCN(CC[C@@]2(c3ccc(F)c(F)c3)CN(C(=O)c3ccccc3)CCO2)CC1` [SR144190] here?
**A.** Its value is “more potent than that of SR.48968”.

**Q.** Which IC50 (NK2 receptor) does the source give for `O=C(C1CCC1)N1CCOC(CCN2CCC3(CC2)c2ccccc2C[S+]3[O-])(c2ccc(Cl)c(Cl)c2)C1` [Example 1, 1-{2-[(2R)-(3,4-dichlorophenyl)-4-(cyclobutanecarbonyl)morpholin-2-yl]ethyl}spiro[benzo[c]thiophene-1(3H),4'-piperidine]-(2S)-oxide] here?
**A.** Its IC50 is 1.67 nM.

**Q.** Which IC50 (NK2 receptor) does the source give for `O=C(C1CCCC1)N1CCOC(CCN2CCC3(CC2)c2ccccc2C[S+]3[O-])(c2ccc(Cl)c(Cl)c2)C1` [Example 3, 1-{2-[(2R)-(3,4-dichlorophenyl)-4-(cyclopentanecarbonyl)morpholin-2-yl]ethyl}spiro[benzo[c]thiophene-1(3H),4'-piperidine]-(2S)-oxide] here?
**A.** The IC50 was 1.58 nM.

**Q.** Which IC50 (NK2 receptor) does the source give for `O=C(C1CC1)N1CCOC(CCN2CCC3(CC2)c2ccccc2C[S+]3[O-])(c2ccc(Cl)c(Cl)c2)C1` [Example 2, 1-{2-[(2R)-(3,4-dichlorophenyl)-4-(cyclopropanecarbonyl)morpholin-2-yl]ethyl}spiro[benzo[c]thiophene-1(3H),4'-piperidine]-(2S)-oxide] here?
**A.** Its IC50 is 1.39 nM.
